Measured values from patent US10479814B2, “Adenosine receptor activation reagent and the uses of thereof” (Zhejiang Subtropical Crops Research Institute, priority 2014, dated 2019).
Entries after “also recorded” stand apart in the source; their conditions may differ.

Columns and labels:
[1] = tested on: rat middle cerebral artery distal obstruction cerebral ischemia model; assay: dMCAO cerebral ischemia: brain histomorphological staining HE; type: in vivo
Method: Using rat middle cerebral artery distal obstruction cerebral ischemia model. (1) according to rat weight, 10% chloral hydrate (3 ml/kg) was peritoneally injected to anaesthetize. (2) the rat lie on right side and fixed, 1 cm skin incision was cut at connection of inner canthus with external canal, fascia was isolated, muscle tissue, the skull was exposed; (3) a small amount of normal saline was sucked with cotton ball to wipe the skull to ac clear view; (4) fascia was isolated under operating microscope, and the skull was exposed, a hole with diameter of 2 mm circular was drilled at a sute 1/3 of spine; (5) the excess bone debris was washed by a small amount of normal saline, the meninge was push aside, and the middle cerebral artery MCA was exposed; (6) the rat lie in supine position and fixed, an incision was made along middle of throat, and arteria carotis communis CCA on both sides were isolate, pass through with a surgical suture, not ligated temporarily; (7) the MCA was found under operating microscope, burned by a monopolar coagulator, then wash and colled with normal saline; (8) immediately after coagulation, the arteria carotis communis on both sides was ligated, and blocked for 60 min; (9) the wound on head was stitched, after 1 hour the arteria carotis communis on both sides was […], and the skin was stitched, thus the modeling was complete. […]

[2] = tested on: pain writhing response induced by 0.7% acetic acid; assay: acetic acid writhing method (analgesia); type: in vivo, mouse; conditions: for effect of A1 antagonist on analgesic effect of the HEA: DPCPX 1 mg/kg ip 10 minutes before HEA 15 mg/kg
Method: Clean male Kunming mice, weight 18-22 g, selecting adenosine AiR antagonist DPCPX. The mice were divided into solvent group, HEA (15 mg/kg) group, DPCPX (1 mg/kg) and DPCPX+HEA (1 mg/kg+15 mg/kg) group; wherein in DPCPX+HEA group, the mouse was peritoneally injected with antagonist, after 10 minutes, the HEA was peritonealy injected. Using writhing method, the treatment dose was given, after 30-40 minutes, 0.7% acetic acid was peritoneally injected, and writhing number of the white mouse within 15 minutes was recorded, calculating the reduction number of pain writhing response induced by 0.7% acetic acid by the HEA.

[3] = tested on: myeloperoxidase (MPO) activity in mouse renal cortex; assay: kidney ischemia reperfusion: MPO analysis; type: in vivo; conditions: vs IR group, P<0.05; HEA 5 and 7.5 mg/kg; DPCPX 1 mg/kg; DPCPX 1 mg/kg+HEA 5 mg/kg
Method: Male C57BL/6 mice 20-25 g, after one week of adaptive feeding to the animals, were randomly divided into eight groups: sham-operation group, IR group, HEA 5 mg/kg group, HEA 7 mg/kg group, HEA 10 mg/kg group, DPCPX (1 mg/kg) group, DPCPX (1 mg/kg)+HEA (5 mg/kg) group and DPCPX (1 mg/kg)+HEA (7.5 mg/kg) group. The mouse was weighed before operation, then peritoneally injected with pentobarbital sodium 50 mg/kg to anaesthetize the mouse, abdomen was opened by ventromedial incision, blunt dissection and the kidney pedicle was sufficiently exposed, renal ischemia was induced by clapping two side kidney pedicle with non-invasive bulldog clamp, the color of kidney change from bright red to purple black immediately, determination method of success of the experiment model can refer to the methods in literature 7 and 8. At time of 30 min of ischemia the bulldog clamp was loosened, the perfuse was restored, the color of kidney changed gradually from dark red to bright red, showing re perfusion was successful. The wound was stitched. The animals were freely fed water and food. In the sham-operation group, the mice only received operation of abdomen open, kidney pedicle and abdomen suture. […] 9.2.6 Real time quantitative PCR analysis of gene expression of ICAM-1, TNF-α and IL-1β; the sequence of primer used in RT-PCR reaction system is as follow: […]

SMILES | effect of DPCPX on brain protective effect of HEA (HE staining) ([1]; DPCPX 1 mg/kg ip + HEA 7.5 mg/kg ip) | effect of A1 antagonist on analgesic effect of the HEA [2] | effect of A1 antagonist on analgesic effect of the HEA ([2]; listed as adenosine A1 receptor antagonist) | myeloperoxidase (MPO) activity in renal cortex [3] | brain histomorphology (HE staining) ([1]; dMCAO rat, HEA 7.5 mg/kg ip, vs model group) | writhing number ([2]; HEA 15 mg/kg ip, 0.7% acetic acid, within 15 minutes, vs solvent group)
CCCn1c(=O)c2[nH]c(C3CCCC3)nc2n(CCC)c1=O [DPCPX, reference compound] | blocking the brain protective effect of the HAE | analgesic effect of the HEA is significantly antagonized | analgesic effect was reduced | significantly increase MPO activity | – | –
OCCNc1ncnc2c1ncn2[C@@H]1O[C@H](CO)[C@@H](O)[C@H]1O [HEA, N(6)-(2-hydroxyethyl)-adenosine] | – | – | – | significantly reduced | reduce the cerebral cortex tissue structure loosening caused by ischemia; also recorded: improve cell swelling degree and nuclear aberration, and increases cell number | significantly reduced the writhing number; also recorded: significantly reduce writhing number
